Measurements taken from patent publication US10111847B2, “Compounds and methods for modulating vascular injury” (The Regents of the University of California, priority 2012, dated 2018).

Experiments:
[1] = tested on: human saphenous vein vascular smooth muscle (sv-VSMC) cells; assay: TNFα induced superoxide production (DHE) in sv-VSMC (Maresin-1); type: cell-based; details: 100 nM; TNFα 10 ng/ml 4 hr
Protocol: Mar-1. Cells were grown in 8-well chamber slides at a density of 15000 cells/well for 2 days for VSMCs and 50000 cells/well for 2 days for ECs in a 96 well plate. After treatments, cells were incubated with dihydroethidium (DHE, 3 μM, Invitrogen) or CellRox (Invitrogen Inc, 5 μM for ECs) in media for 30 minutes at 37° C. in a humidified chamber with 5% CO2 protected from light. DAPI nuclear counter staining was utilized for DHE staining. For DHE, fluorescence was detected with TRITC filter allowing the detection of the DHE emission wavelength of 590-620 nm. Fluorescence quantitation was performed using ImageJ analysis software. For ECs, fluorescence measurements were taken using a Spectramax M2e plate reader.
FIGS. 13A-13D. Representative merged images of DHE staining, counterstained with DAPI. (A), Negative control. (B), TNFα at 10 ng/ml for 4 hr. […] (E) Quantitative comparison of DHE staining intensity in the nucleus of human saphenous vein vascular smooth muscle (sv-VSMC) cells, treated with TNFα and 7S and 7R-Maresin-1 with and without pertussis toxin. (F) Quantitative comparison of cellular ROS production by CellRox (Life technologies, Carlsbad, Calif.) in human saphenous vein endothelial (EC) cells treated with TNFα (1 ng/nil) and 7S-Maresin-1 (N>=3). […]

IKKα/β subunit = assay: TNFα induced phosphorylation of IKKα/β in sv-ECs, western blot; type: cell-based, human; details: 100 nm, 30 min; TNFα 1 ng/ml 15 min
Protocol: Mar-1. VSMCs and ECs were lysed in buffer (20 mM Tris-Hcl, 137 mM NaCl, 10% Glycerol, 1% NP-40) with protease and phosphatase inhibitors (Halt inhibitor capsules, Pierce, Inc) by sonication on ice. The lysates were instantly snap frozen in liquid nitrogen and thawed back later for western blotting. After centrifugation (15,000 g for 20 minutes), the whole cell extract (supernatant) was collected and was heated at 100° C. in Laemlli buffer for 6 minutes. Lysates were run on Mini-Protean TGX gels
(Biorad) and transferred on PVDF membranes which were probed with appropriate primary and secondary antibodies and visualized for quantitation using q-dot nanocrystals (Life Technologies, Inc).
Cells were pretreated with 100 nm of 7S/7R-Maresin-1 for 30 min, followed by TNFα (10 ng/ml for VSMC and 1 ng/ml for EC) for 15 min. Whole cell lysates were collected and probed for pan and phospho IKK (Cell Signaling Inc.).
FIG. 18. IKK-phospho and total IKK western blotting image is representative of three independent experiments. Bar graph represents net quantitative densitometry analysis. N=3. P≤0.05, One-way ANOVA with Dunnett's post hoc test. *: P≤0.05 compared to control, unpaired t-test. †: P≤0.05 compared to TNFα, unpaired t-test. Error bars: SEM.

inflammatory mediators = assay: Inflammation cytokine array of conditioned medium from sv-ECs; type: cell-based, human; details: 100 nm, 30 min; TNF α 1 ng/ml 18 hrs
Protocol: Media was collected and incubated for 2 hr with the inflammation array membranes. The cells were harvested for protein estimation for normalization purposes. The membranes were washed following instruction protocol supplied by the manufacturer (Raybiotech Inc., Norcross, Ga.) and probed with biotinylated anti-cytokine antibody cocktail (provided by the manufacturer) for 2 hrs. The membranes were again washed with appropriate buffers provided by the manufacturer and incubated for 2 hrs with HRP-conjugated streptavidin, followed by chemiluminescence based detection of signal by Chemidoc (Biorad Inc.)
Inflammatory signals are amplified by autocrine and paracrine pathways that include the elaboration of pro-inflammatory mediators into the local extracellular milieu. Cells grown in 6 cm dish were serum starved for 24 hrs. The cells were then pre-treated with 100 nm 7S-Maresin-1 for 30 min followed by 18 hrs of TNF α (1 ng/ml). Cell culture media was collected and incubated with human inflammation cytokine array membranes (AAH-INF-3-4, Raybiotech Inc.), coated with antibodies (in duplicate) recognizing 40 different inflammatory mediators.
FIGS. 19A-19C. (A, B) Representative membrane images from a set of three pairs. (C) Densitometric quantitation of each of the attenuated inflammatory mediators in three independent experiments was performed and is represented in the bar graph. […]

VSMC = assay: TNF-α-induced superoxide production (DHE) in VSMC (RvD1); type: cell-based, human; details: 10 and 100 nM; TNF-α 10 ng/ml 4 hours
Protocol: RvD1. Cells are seeded and grown on chamber slides at a density of 10,000 cells per chamber for 2 days, followed by treatment with 10 ng/ml TNF-α with or without RvD1 (10 and 100 nM) in serum-free media for 4 hours. After incubation cells are incubated with DHE (5 μmol/L, Invitrogen) in PBS for 30 minutes at 37° C. in a humidified chamber protected from light. DAPI nuclear counter staining is utilized. For frozen section 30-μm-thick sections are incubated with DHE (10 μmol/L) in PBS for 30 minutes at the same condition described above. Fluorescence was detected with TRITC filter allowing the detection of the DHE emission wavelength of 590-620 nm. The fluorescence lamp gain is standardized for all images and analyses. Fluorescence quantitation is performed using ImageJ analysis software (National Institute of Health, Bethesda, Md.). For VSMC the fluorescence intensity is determined for the DHE-stained control cells (no treatment control) from each experimental group and then individual treated cells from the same group are normalized to the corresponding value. For frozen sections the fluorescence intensity is determined for the DHE-stained control vessels (uninjured abdominal aorta) from each experimental group and then individual treated vessels from the same group are normalized to the corresponding value. […]

| SMILES | TNF-α-induced superoxide production in VSMC [1] | TNFα induced phosphorylation of IKKα/β subunit in human sv-ECs (IKKα/β subunit) | levels of multiple inflammatory mediators in conditioned medium from EC (inflammatory mediators) | TNF-α-induced superoxide production in VSMC (VSMC) |
| --- | --- | --- | --- | --- |
| CC/C=C\C/C=C\C[C@H](O)\C=C/C=C/C=C/[C@@H](O)C/C=C\CCC(=O)O [7S-Maresin-1, 7S,14R-dihydroxydocosa-4Z,8E,10Z,12Z,16Z,19Z-hexaenoic acid] | significantly reduced | Reduce | reduced |  |
| CC/C=C\C[C@H](O)/C=C/C=C\C=C\C=C\[C@@H](O)[C@@H](O)C/C=C\CCC(=O)O [RvD1, Resolvin D1] |  |  |  | significantly reduced |
